The record followed here is patent US20130261178A1, “PHENOXYPROPANOL DERIVATIVES AND THEIR USE IN TREATING CARDIAC AND CARDIOVASCULAR DISEASES” (priority 2010, published 2013).

One data set has as its target beta1-adrenoceptor (Homo sapiens, UniProt P08588). In words: 3H-CGP12177 whole-cell binding, CHO cells expressing human beta1-adrenoceptor. Details: expressed in transfected cells; host or cells: CHO cells. The following applies: 3H-CGP 12177 whole cell binding, mean ± s.e.mean; for Kd: log KD, read-out: Beta 1 Log KD (converted). From the text:
(§1) The selectivity of a ligand is given by the ratio of beta-1 to beta-2 KD.

Another data set concerns the target T1, human beta2-adrenoceptor (Homo sapiens, UniProt P07550).
T1 construct: expressed in transfected cells; host or cells: CHO cells
In words: 3H-CGP12177 whole-cell binding, CHO cells expressing human beta2-adrenoceptor. The following applies: 3H-CGP 12177 whole cell binding, mean ± s.e.mean; for Kd: log KD, read-out: Beta 2 Log KD (converted).
Excerpt: as §1

Counter-ions that a name gives are not always drawn.

T1 sequence (P07550 whole entry): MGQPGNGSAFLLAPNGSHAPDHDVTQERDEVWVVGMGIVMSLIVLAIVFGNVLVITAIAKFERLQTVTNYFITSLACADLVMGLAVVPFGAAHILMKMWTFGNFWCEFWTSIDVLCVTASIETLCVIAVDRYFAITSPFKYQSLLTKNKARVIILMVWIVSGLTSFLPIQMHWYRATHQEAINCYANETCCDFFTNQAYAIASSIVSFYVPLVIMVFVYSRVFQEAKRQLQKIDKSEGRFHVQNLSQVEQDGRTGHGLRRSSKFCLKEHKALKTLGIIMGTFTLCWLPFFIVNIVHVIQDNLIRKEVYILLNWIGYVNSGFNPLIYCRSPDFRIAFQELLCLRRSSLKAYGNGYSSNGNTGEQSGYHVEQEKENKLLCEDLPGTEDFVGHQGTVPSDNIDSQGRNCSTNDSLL
Chain of beta1-adrenoceptor (P08588 whole entry): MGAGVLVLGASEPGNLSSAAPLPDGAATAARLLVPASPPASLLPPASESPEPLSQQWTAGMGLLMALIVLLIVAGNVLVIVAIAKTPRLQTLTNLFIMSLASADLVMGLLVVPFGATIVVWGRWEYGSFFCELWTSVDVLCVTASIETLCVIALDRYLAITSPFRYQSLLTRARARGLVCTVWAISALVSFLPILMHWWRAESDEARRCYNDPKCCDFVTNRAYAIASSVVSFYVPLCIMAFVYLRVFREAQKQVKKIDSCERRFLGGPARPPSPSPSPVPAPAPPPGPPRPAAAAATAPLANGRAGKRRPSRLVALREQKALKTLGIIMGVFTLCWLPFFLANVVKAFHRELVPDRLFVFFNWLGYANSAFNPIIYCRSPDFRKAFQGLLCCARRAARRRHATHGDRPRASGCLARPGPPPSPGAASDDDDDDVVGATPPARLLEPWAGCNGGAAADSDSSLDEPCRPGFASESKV

In general, Kd refers to the constant that tells how readily two partners part at equilibrium. As for `CC(C)OCCOc1ccc(OCC(O)CNCCNC(=O)Nc2cccc(Cl)c2)cc1` (stereo not drawn) [46k, 1-(2-(3-(4-(2-(Isopropyloxy)ethoxy)phenoxy)-2-hydroxypropylamino)ethyl)-3-(3-chlorophenyl)urea], the Kd is 21.4 nM at beta1-adrenoceptor and 5130 nM on human beta2-adrenoceptor.
As to `CCOCCOc1ccc(OCC(O)CNCCNC(=O)Nc2ccc(OCc3ccccc3)cc2)cc1` (stereo not drawn) [45d], the dissociation constant (Kd) on beta1-adrenoceptor was 91.2 nM.
`Nc1ccc(NC(=O)NCCNCC(O)COc2ccc(OCCOC3CCCC3)cc2)cc1` (stereo not drawn) [60c]: the figures for the Kd on beta1-adrenoceptor and at human beta2-adrenoceptor were 29.5 nM and 3630 nM, respectively.
As usually defined, the melting point is the temperature of the solid-liquid transition. Turning to `Cc1ccc(CC(=O)NCCNCC(O)COc2ccc(OCCOC3CCCC3)cc2)cc1` (stereo not drawn) [62r], the melting point is 82 to 85 °C. Also, the Kd on beta1-adrenoceptor was 50.1 nM. In addition, the Kd at human beta2-adrenoceptor was 776 nM.
`COc1ccc(CC(=O)NCCNCC(O)COc2ccc(OCCOC3CCCC3)cc2)cc1` (stereo not drawn) [62t]: the figures for the Kd on beta1-adrenoceptor and at human beta2-adrenoceptor were 9.77 nM and 91.2 nM, respectively.
For `COC(=O)c1ccc(NC(=O)NCCNCC(O)COc2ccc(OCCOC3CCCC3)cc2)cc1` (stereo not drawn) [47z, Methyl 4-(3-(2-(3-(4-(2-(cyclopentyloxy)ethoxy)phenoxy)-2-hydroxypropylamino)ethyl)ureido)benzoate], in that order: 43.7 nM and 2040 nM.
On the same counts, the results for `COc1ccc(OCCNCC(O)COc2ccc(OCCOC3CCCC3)cc2)cc1` (stereo not drawn) [67e] are 8.91 nM and 794 nM.
On the same counts, the results for `COC(=O)c1cccc(NC(=O)NCCNCC(O)COc2ccc(OCCOC3CCCC3)cc2)c1` (stereo not drawn) [47y, Methyl 3-(3-(2-(3-(4-(2-(cyclopentyloxy)ethoxy)phenoxy)-2-hydroxypropylamino)ethyl)ureido)benzoate] are 12.3 nM and 1100 nM.
`O=C(NCCNCC(O)COc1ccc(OCCOCC2CC2)cc1)Nc1ccc(OCc2ccccc2)cc1` (stereo not drawn) (hydrate or solvate) [45a] displayed a melting point of 131 to 133 °C.
Take `CCCOCCOc1ccc(OCC(O)CNCCNC(=O)Nc2cccc(Cl)c2)cc1` (stereo not drawn) [46m, 1-(2-(3-(4-(2-(Propyloxy)ethoxy)phenoxy)-2-hydroxypropylamino)ethyl)-3-(3-chlorophenyl)urea]: the dissociation constant (Kd) at beta1-adrenoceptor is 16.2 nM; on human beta2-adrenoceptor it was 3720 nM.
For `NC(=O)c1ccccc1OCCNCC(O)COc1ccc(OCCOC2CCCC2)cc1` (stereo not drawn) [67a], in that order: 49 nM and 1050 nM.
On the same counts, the results for `NC(=O)c1cc(OCCNCC(O)COc2ccc(OCCOC3CCCC3)cc2)ccc1O` (stereo not drawn) [compound 72, 5-(2-(3-(4-(2-(Cyclopentyloxy)ethoxy)phenoxy)-2-hydroxypropylamino)ethoxy)-2-hydroxybenzamide] are 0.776 nM and 25.1 nM.
On the same counts, the results for `CC(C)OCCOc1ccc(OCC(O)CNCCNC(=O)Nc2ccc(O)cc2)cc1` (stereo not drawn) [46l, 1-(2-(3-(4-(2-(Isopropyloxy)ethoxy)phenoxy)-2-hydroxypropylamino)ethyl)-3-(4-hydroxyphenyl)urea] are 58.9 nM and 15500 nM.
Turning to `OC(CNCCOc1cccc(Cl)c1)COc1ccc(OCCOC2CCCC2)cc1` (stereo not drawn) [65a], the Kd at beta1-adrenoceptor was 74.1 nM; on human beta2-adrenoceptor, 776 nM.
The compound `Oc1ccc(OCCNCC(O)COc2ccc(OCCOC3CCCC3)cc2)cc1` (stereo not drawn) (hydrate or solvate) [65e] displayed a melting point of 101 to 103 °C.
With `NC(=O)c1ccc(OCCNCC(O)COc2ccc(OCCOC3CCCC3)cc2)cc1` (stereo not drawn) [67c], the equilibrium dissociation constant (Kd) on beta1-adrenoceptor was 3.31 nM; at human beta2-adrenoceptor, 851 nM.
Turning to `O=C(NCCNCC(O)COc1ccc(OCCOC2CCCC2)cc1)Nc1ccc(O)c(Cl)c1` (stereo not drawn) [54c, 1-(3-Chloro-4-hydroxyphenyl)-3-(2-(3-(4-(2-(cyclopentyloxy)ethoxy)phenoxy)-2-hydroxypropylamino)ethyl)urea], the dissociation constant (Kd) is 7.24 nM on beta1-adrenoceptor and 1020 nM at human beta2-adrenoceptor.
On the same counts, the results for `Nc1cccc(NC(=O)NCCNCC(O)COc2ccc(OCCOC3CCCC3)cc2)c1` (stereo not drawn) [60b] are 20 nM and 4170 nM.
For `OC(CNCCOc1ccccc1-c1ccccc1)COc1ccc(OCCOC2CCCC2)cc1` (stereo not drawn) [65c], in that order: 107 nM and 741 nM.
On the same counts, the results for `Oc1ccc(OCCNCC(O)COc2ccc(OCCOC3CCCC3)cc2)cc1` (stereo not drawn) [65e] are 5.75 nM and 204 nM.
Turning to `COc1ccc(NC(=O)NCCNCC(O)COc2ccc(OCCOC3CCCC3)cc2)cc1Cl` (stereo not drawn) [54b, 1-(3-Chloro-4-methoxyphenyl)-3-(2-(3-(4-(2-(cyclopentyloxy)ethoxy)phenoxy)-2-hydroxypropylamino)ethyl)urea], the dissociation constant Kd is 19.5 nM at beta1-adrenoceptor and 1510 nM at human beta2-adrenoceptor.
For `CC(=O)Oc1ccc(CC(=O)NCCNCC(O)COc2ccc(OCCOC3CCCC3)cc2)cc1` (stereo not drawn) [62w, 4-(2-(2-(3-(4-(2-(Cyclopentyloxy)ethoxy)phenoxy)-2-hydroxypropylamino)ethylamino)-2-oxoethyl)phenyl acetate], at beta1-adrenoceptor, the “Beta 1 Log KD” value is −8.09 ± 0.03. Moreover, the “Beta 2 Log KD” value on human beta2-adrenoceptor is on record as −6.59 ± 0.02.
In the case of `CCCOCCOc1ccc(OCC(O)CNCCNC(=O)Nc2ccc(O)cc2)cc1` (stereo not drawn) [46n, 1-(2-(3-(4-(2-(Propyloxy)ethoxy)phenoxy)-2-hydroxypropylamino)ethyl)-3-(4-hydroxyphenyl)urea], the dissociation constant (Kd) on beta1-adrenoceptor is 37.2 nM; at human beta2-adrenoceptor it was 13500 nM.
With `Oc1ccc(OCCCNCC(O)COc2ccc(OCCOC3CCCC3)cc2)cc1` (stereo not drawn) (hydrate or solvate) [65f], the melting point stood at 136 °C.
In the case of `OC(CNCCOc1ccc(F)cc1)COc1ccc(OCCOC2CCCC2)cc1` (stereo not drawn) [67d], the values for the dissociation constant Kd at beta1-adrenoceptor and on human beta2-adrenoceptor were 9.33 nM and 1020 nM, respectively.
For `Oc1ccc(OCCCNCC(O)COc2ccc(OCCOC3CCCC3)cc2)cc1` (stereo not drawn) [65f], in that order: 34.7 nM and 794 nM.
For `O=C(NCCNCC(O)COc1ccc(OCCOC2CCCC2)cc1)Nc1ccc(OCCF)cc1` (stereo not drawn) [47x, 1-(2-(3-(4-(2-(Cyclopentyloxy)ethoxy)phenoxy)-2-hydroxypropylamino)ethyl)-3-(4-(2-fluoroethoxy)phenyl)urea], in that order: 17.8 nM and 1820 nM.
Regarding `O=C(NCCNC[C@H](O)COc1ccc(OCCOC2CCCC2)cc1)Nc1cccc(Cl)c1` [(S)-47l, (S)-1-(2-(3-(4-(2-(Cyclopentyloxy)ethoxy)phenoxy)-2-hydroxypropylamino)ethyl)-3-(3-chlorophenyl)urea], the figures for the Kd at beta1-adrenoceptor and at human beta2-adrenoceptor were 2.82 nM and 1150 nM, respectively.
For `O=C(NCCNCC(O)COc1ccc(OCCOC2CCCC2)cc1)Nc1ccc([N+](=O)[O-])cc1` (stereo not drawn) [47w, 1-(2-(3-(4-(2-(Cyclopentyloxy)ethoxy)phenoxy)-2-hydroxypropylamino)ethyl)-3-(4-nitrophenyl)urea], in that order: 18.6 nM and 1780 nM.
For `NC(=O)c1cccc(OCCNCC(O)COc2ccc(OCCOC3CCCC3)cc2)c1` (stereo not drawn) [67b], in that order: 18.2 nM and 1000 nM.
In turn, `OC(CNCCOc1cccc(Cl)c1)COc1ccc(OCCOC2CCCC2)cc1` (stereo not drawn) (hydrate or solvate) [65a] registered a melting point of 73.5 °C.
Turning to `O=C(NCCNCC(O)COc1ccc(OCCOC2CC2)cc1)Nc1cccc(Cl)c1` (stereo not drawn) [46o, 1-(3-Chlorophenyl)-3-(2-(3-(4-(2-cyclopropoxyethoxy)phenoxy)-2-hydroxypropylamino)ethyl)urea], the Kd on beta1-adrenoceptor is 13.8 nM; on human beta2-adrenoceptor it was 2950 nM.
On the same counts, the results for `Nc1ccccc1NC(=O)NCCNCC(O)COc1ccc(OCCOC2CCCC2)cc1` (stereo not drawn) [60a] are 75.9 nM and 2190 nM.
On the same counts, the results for `O=C(NCCNCC(O)COc1ccc(OCCOC2CC2)cc1)Nc1ccc(O)cc1` (stereo not drawn) [46p, 1-(2-(3-(4-(2-Cyclopropoxyethoxy)phenoxy)-2-hydroxypropylamino)ethyl)-3-(4-hydroxyphenyl)urea] are 63.1 nM and 25700 nM.
As for `CC(=O)Oc1ccc(C(=O)NCCNCC(O)COc2ccc(OCCOC3CCCC3)cc2)cc1` (stereo not drawn) [62e, 4-(2-(3-(4-(2-(Cyclopentyloxy)ethoxy)phenoxy)-2-hydroxypropylamino)ethylcarbamoyl)phenyl acetate], the “Beta 1 Log KD” value at beta1-adrenoceptor is −8.42 ± 0.02. Moreover, the “Beta 2 Log KD” value on human beta2-adrenoceptor was −6.27 ± 0.03.
Regarding `OC(CNCCOc1ccc(-c2ccccc2)cc1)COc1ccc(OCCOC2CCCC2)cc1` (stereo not drawn) (hydrate or solvate) [65d], the melting point lay in the range of 154 to 155 °C.
Regarding `Cc1cccc(CC(=O)NCCNCC(O)COc2ccc(OCCOC3CCCC3)cc2)c1` (stereo not drawn) [62q], the Kd on beta1-adrenoceptor was 26.9 nM; on human beta2-adrenoceptor, 302 nM.
For `O=C(NCCNCC(O)COc1ccc(OCCOC2CCCC2)cc1)Nc1cccc(C(=O)O)c1` (stereo not drawn) [47aa, 3-(3-(2-(3-(4-(2-(Cyclopentyloxy)ethoxy)phenoxy)-2-hydroxypropylamino)ethyl)ureido)benzoic acid hydrochloride], in that order: 77.6 nM and 43650 ± 400 nM.
For `O=C(NCCNCC(O)COc1ccc(OCCOC2CCCC2)cc1)Nc1ccc(C(=O)O)cc1` (stereo not drawn) [47bb, 4-(3-(2-(3-(4-(2-(Cyclopentyloxy)ethoxy)phenoxy)-2-hydroxypropylamino)ethyl)ureido)benzoic acid hydrochloride], in that order: 105 nM and 43700 ± 701 nM.
For `OC(CNCCOc1ccc(-c2ccccc2)cc1)COc1ccc(OCCOC2CCCC2)cc1` (stereo not drawn) [65d], in that order: 398 nM and 79400 nM.
Take `COc1cc(C(=O)NCCNCC(O)COc2ccc(OCCOC3CCCC3)cc2)ccc1O` (stereo not drawn) [62f]: the results for the Kd at beta1-adrenoceptor and on human beta2-adrenoceptor were 4.9 nM and 1410 nM, respectively.
On the same counts, the results for `O=C(Cc1ccccc1O)NCCNCC(O)COc1ccc(OCCOC2CCCC2)cc1` (stereo not drawn) [62u] are 19.1 nM and 138 nM.
For the compound `O=C(NCCNC[C@@H](O)COc1ccc(OCCOC2CCCC2)cc1)Nc1cccc(Cl)c1` [(R)-47l, (R)-1-(2-(3-(4-(2-(Cyclopentyloxy)ethoxy)phenoxy)-2-hydroxypropylamino)ethyl)-3-(3-chlorophenyl)urea], the Kd is 186 nM at beta1-adrenoceptor and 5890 nM at human beta2-adrenoceptor.
